Test system: participants with migraine (qualifying prodrome events)
Assay: Phase 3 crossover study: ability to function normally (Functional Disability Scale)
Format: in vivo, human
Conditions: 100 mg in prodrome, mITT
Description: A phase 3, multicenter, randomized, double-blind, placebo-controlled, crossover study was carried out to evaluate the efficacy, safety, and tolerability of oral ubrogepant in the acute treatment of migraine when administered during the prodrome. The study evaluated whether treatment during the initial phase of a migraine attack (i.e., the prodrome or premonitory phase) prior to the onset of headache, can attenuate the severity of the headache phase and reduce disability.
Eligible participants were randomized (1:1) to treatment sequences A or B in this crossover study. Participants randomized to Treatment Sequence A received placebo to treat their first qualifying prodrome event and ubrogepant 100 mg to treat their second qualifying prodrome event. For those randomized to Treatment Sequence B, they received the reverse: ubrogepant 100 mg to treat their first qualifying prodrome event and placebo to treat their second qualifying prodrome event.
The primary efficacy endpoint was the absence of a headache of moderate/severe intensity within 24 hours after taking double-blind study intervention during the prodrome. The secondary efficacy endpoints were the absence of a headache of moderate or severe intensity within 48 hours, ability to function normally over 24 hours, and absence of a headache of any intensity within 24 hours after taking double blind study interventions during the prodrome.
A responder for ability to function normally is a participant having a score of 0 (no disability, able to function normally) on the Functional Disability Scale (FDS), and a non-responder is one having a score of 1 (Mildly impaired, can still do everything but with difficulty) to 3 (Severely impaired, cannot do all or most things, bed rest may be necessary).

C[C@@H]1[C@H](c2ccccc2)C[C@H](NC(=O)c2cnc3c(c2)C[C@@]2(C3)C(=O)Nc3ncccc32)C(=O)N1CC(F)(F)F [Ubrogepant, (3′S)—N-((3S,5S,6R)-6-methyl-2-oxo-5-phenyl-1-(2,2,2-trifluoroethyl)piperidin-3-yl)-2′-oxo-1′,2′,5,7-tetrahydrospiro[cyclopenta[b]pyridine-6,3′-pyrrolo[2,3-b]pyridine]-3-carboxamide]
Ability to function normally, Nonresponder (%) (1 hour post dose): (74.4) %
Ability to function normally, Odds Ratio vs. Placebo (1 hour post dose): 1.29
Ability to function normally, Responder (%) (1 hour post dose): (25.6) %
Ability to function normally, Nonresponder (%) (2 hours post dose): (63.0) %
Ability to function normally, Odds Ratio vs. Placebo (2 hours post dose): 1.73
Ability to function normally, Responder (%) (2 hours post dose): (37.0) %
Ability to function normally, Responder (%) (2 hours post dose, listed as ubrogepant): 37.0%
Ability to function normally, Nonresponder (%) (3 hours post dose): (51.7) %
Ability to function normally, Odds Ratio vs. Placebo (3 hours post dose): 1.71
Ability to function normally, Responder (%) (3 hours post dose): (48.3) %
Ability to function normally, Nonresponder (%) (4 hours post dose): (41.0) %
Ability to function normally, Odds Ratio vs. Placebo (4 hours post dose): 1.97
Ability to function normally, Responder (%) (4 hours post dose): (59.0) %
Ability to function normally, Nonresponder (%) (6 hours post dose): (32.7) %
Ability to function normally, Odds Ratio vs. Placebo (6 hours post dose): 1.78
Ability to function normally, Responder (%) (6 hours post dose): (67.3) %
Ability to function normally, Nonresponder (%) (8 hours post dose): (25.0) %
Ability to function normally, Odds Ratio vs. Placebo (8 hours post dose): 1.84
Ability to function normally, Responder (%) (8 hours post dose): (75.0) %
Ability to function normally, Nonresponder (%) (24 hours post dose): (11.1) %
Ability to function normally, Odds Ratio vs. Placebo (24 hours post dose): 1.41
Ability to function normally, Responder (%) (24 hours post dose): (88.9) %
Ability to function normally over 24 hours, Geometric Mean Odds Ratio vs. Placebo (overall, all timepoints through 24 hours): 1.66

Source: US20260130901A1, “CGRP RECEPTOR ANTAGONIST FOR THE TREATMENT OF MIGRAINE” (ALLERGAN PHARMACEUTICALS INTERNATIONAL LIMITED, priority 2022, published 2026)
